In patent US9550782B2, “Compounds and methods for treating diabetes” (Medivation Technologies, Inc., priority 2011, dated 2017):
“And” between values parts separate entries of the source, which are not always exact repeats. Equal values may be shown once.

How the values were obtained:
[1] = target: T1, human recombinant adrenergic α2B receptor (Homo sapiens, UniProt P18089); assay: Radioligand binding, adrenergic α2B ([3H]Rauwolscine); conditions: compound at 0.03 μM, repeat datapoints each shown, 0.03 µM
T1 construct: expressed in transfected cells; host or cells: CHO-K1
T1 sequence (P18089 1-450): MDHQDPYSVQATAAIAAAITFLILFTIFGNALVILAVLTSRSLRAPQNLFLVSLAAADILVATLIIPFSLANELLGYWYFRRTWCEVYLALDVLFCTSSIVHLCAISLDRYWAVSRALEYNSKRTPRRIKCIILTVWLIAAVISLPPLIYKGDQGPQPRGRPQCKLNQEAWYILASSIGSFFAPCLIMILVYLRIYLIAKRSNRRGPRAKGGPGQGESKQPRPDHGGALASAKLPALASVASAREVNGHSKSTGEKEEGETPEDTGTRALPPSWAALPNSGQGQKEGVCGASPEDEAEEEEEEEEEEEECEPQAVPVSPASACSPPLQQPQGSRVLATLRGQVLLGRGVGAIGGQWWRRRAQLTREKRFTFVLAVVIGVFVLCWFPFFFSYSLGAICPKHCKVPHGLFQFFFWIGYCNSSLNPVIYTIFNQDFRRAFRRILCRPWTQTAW
Method: To evaluate in radioligand binding assays the activity of compounds of the invention, human recombinant adrenergic α2B receptor expressed in Chinese hamster ovary (CHO) K1 cells (Uhlen, S. et al, Eur. J. Pharmacol. 343(1):93, 1998) in a modified Tris-HCl buffer (50 mM Tris-HCl, pH 7.4, 12.5 mM MgCl2, 1 mM EDTA, 0.2% BSA) was used. Compounds of the invention were incubated with 2.5 nM [3H]Rauwolscine for 60 min at 25° C. Non-specific binding was estimated in the presence of 10 μM Prazosin. Receptor proteins were filtered and washed, the filters were then counted to determine [3H]Rauwolscine specifically bound. […] Compounds of the invention were tested in this biochemical assay and percent inhibition of specific binding was determined. Biochemical assay results are presented as the percent inhibition of specific binding in Table B1.

[2] = target: T2, rat adrenergic α1B receptor (Rattus norvegicus, UniProt P15823); assay: Radioligand binding, adrenergic α1B ([3H]Prazosin); design: species or system Wistar Rat; conditions: repeat datapoints each shown; for Percentage inhibition of ligand binding, Adrenergic α1B (0.1 μM): compound at 0.1 μM; for Percentage inhibition of ligand binding, Adrenergic α1B (0.03 μM): compound at 0.03 μM
T2 construct: rat adrenergic α1B receptor obtained from Wistar Rat liver; from tissue; host or cells: Wistar rat liver
T2 sequence (P15823 1-515): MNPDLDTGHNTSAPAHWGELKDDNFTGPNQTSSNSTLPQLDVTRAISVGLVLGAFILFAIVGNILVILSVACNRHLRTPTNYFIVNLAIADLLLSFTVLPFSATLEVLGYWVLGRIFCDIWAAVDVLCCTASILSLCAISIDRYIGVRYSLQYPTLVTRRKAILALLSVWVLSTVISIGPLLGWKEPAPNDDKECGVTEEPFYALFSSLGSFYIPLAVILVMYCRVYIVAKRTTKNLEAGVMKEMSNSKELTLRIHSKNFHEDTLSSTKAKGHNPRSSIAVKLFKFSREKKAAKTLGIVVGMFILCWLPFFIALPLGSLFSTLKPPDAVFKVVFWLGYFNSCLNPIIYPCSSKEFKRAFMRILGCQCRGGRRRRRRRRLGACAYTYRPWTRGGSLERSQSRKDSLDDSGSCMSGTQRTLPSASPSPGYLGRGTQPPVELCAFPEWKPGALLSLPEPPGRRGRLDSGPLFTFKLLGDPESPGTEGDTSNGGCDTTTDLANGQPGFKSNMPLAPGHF
Summary of the method: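 Rat α1B receptor from Wistar rat liver was incubated with 0.25 nM [3H]prazosin for 60 min at 25 °C in 50 mM Tris-HCl, pH 7.4, 0.5 mM EDTA. Non-specific binding was defined with 10 μM phentolamine. Bound radioligand was measured by filtration and counting, reported as percent inhibition of specific binding.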

[3] = target: T3, human recombinant adrenergic α2A receptor (Homo sapiens, UniProt P08913); assay: Radioligand binding, adrenergic α2A ([3H]MK-912); conditions: [3H]MK-912, repeat datapoints each shown; for Percentage inhibition of ligand binding, Adrenergic α2A (0.1 μM): compound at 0.1 μM; for Percentage inhibition of ligand binding, Adrenergic α2A (0.03 μM): compound at 0.03 μM
T3 construct: expressed in transfected cells; host or cells: insect Sf9 cells
T3 sequence (P08913 1-465): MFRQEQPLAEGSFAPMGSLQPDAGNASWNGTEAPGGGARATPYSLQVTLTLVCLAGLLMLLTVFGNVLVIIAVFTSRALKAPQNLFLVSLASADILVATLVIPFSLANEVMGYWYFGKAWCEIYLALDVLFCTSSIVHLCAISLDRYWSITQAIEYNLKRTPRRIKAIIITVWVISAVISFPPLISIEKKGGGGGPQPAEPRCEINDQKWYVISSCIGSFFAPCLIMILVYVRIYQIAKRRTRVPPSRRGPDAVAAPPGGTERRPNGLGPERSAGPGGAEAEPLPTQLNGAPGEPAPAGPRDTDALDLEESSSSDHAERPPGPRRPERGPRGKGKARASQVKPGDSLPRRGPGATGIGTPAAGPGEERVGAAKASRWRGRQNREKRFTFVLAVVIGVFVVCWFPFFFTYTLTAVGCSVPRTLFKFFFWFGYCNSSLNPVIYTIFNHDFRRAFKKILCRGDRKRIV
Summary of the method: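 Receptor expressed in Sf9 cells, in 50 mM Tris-HCl pH 7.4, 12.5 mM MgCl2, 2 mM EDTA; compounds incubated with 1 nM [3H]MK-912 for 60 min at 25 °C.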

Percentage inhibition of ligand binding, Adrenergic α2B (0.03 μM) [1]	Percentage inhibition of ligand binding, Adrenergic α1B (0.1 μM) [2]	Percentage inhibition of ligand binding, Adrenergic α2A (0.1 μM) [3]	Percentage inhibition of ligand binding, Adrenergic α1B (0.03 μM) [2] [%]	Percentage inhibition of ligand binding, Adrenergic α2A (0.03 μM) [3] [%]	Structure (SMILES)
1% and 7%	1%	19%			Cc1cnc2c(c1)c1c(n2CC(C)(O)c2cccnc2)CCN2CCCC12 (single isomer, unassigned) [26c]
6% and 11%	−2%	0%			Cc1cnc2c(c1)c1c(n2CC(C)(O)c2cccnc2)CCN2CCCC12 (single isomer, unassigned) [26d]
96%	41%	28%			CN1CCc2c(n(CC(C)(O)c3cccnc3)c3ccc(Cl)cc23)C1 (single isomer, unassigned) [28a]
37%	20%	24%			CN1CCc2c(n(CC(C)(O)c3cccnc3)c3ccc(Cl)cc23)C1 (single isomer, unassigned) [28b]
98% and 100%	32% and 38%	35% and 39%	19	16	Cc1ccc2c(c1)c1c(n2CC(C)(O)c2ccc(C)nc2)CCN(C)C1 (single isomer, unassigned) [29a]
93% and 97%	25% and 28%	19% and 27%	16	11	CN1CCc2c(c3cc(Cl)ccc3n2CC(C)(O)c2cccnc2)C1 (single isomer, unassigned) [31a]
33%	14%	8%			CCC1c2c(c3cc(C)ccc3n2CC(O)c2ccncc2)C2CCN1C2 (single isomer, unassigned) [36a]
−1%	11%	0%			CCC1c2c(c3cc(C)ccc3n2CC(O)c2ccncc2)C2CCN1C2 (single isomer, unassigned) [36b]
2%	−5%	18%			OC(Cn1c2c(c3cccnc31)CN1CCCC1C2)c1ccncc1 (single isomer, unassigned) [37a]
−3%	−10%	−20%			OC(Cn1c2c(c3cccnc31)CN1CCCC1C2)c1ccncc1 (single isomer, unassigned) [37b]
0%	2%	6%			OC(Cn1c2c(c3cccnc31)CN1CCCC1C2)c1ccncc1 (single isomer, unassigned) [37c]
−3%	2%	8%			OC(Cn1c2c(c3cccnc31)CN1CCCC1C2)c1ccncc1 (single isomer, unassigned) [37d]
35%	11%	14%			Cc1ccc2c(c1)c1c(n2CC(O)c2ccncc2)C(C)N2CCC1C2 (single isomer, unassigned) [38a]
17%	20%	−1%			Cc1ccc2c(c1)c1c(n2CC(O)c2ccncc2)C(C)N2CCC1C2 (single isomer, unassigned) [38b]
27%	2%	7%			CN1CCc2c(c3ccc(C(F)(F)F)cc3n2CC(O)c2cccnc2)C1 (single isomer, unassigned) [40a]
29%	−2%	13%			CN1CCc2c(c3ccc(C(F)(F)F)cc3n2CC(O)c2cccnc2)C1 (single isomer, unassigned) [40b]
14%	43%	−9%			CN1CCc2c(n(CC(O)c3ccncc3)c3ccc(Cl)cc23)C1 (single isomer, unassigned) [41a]
50%	50%	8%			CN1CCc2c(n(CC(O)c3ccncc3)c3ccc(Cl)cc23)C1 (single isomer, unassigned) [41b]
54%	23%	−4%			CN1CCc2c(c3cccc(Cl)c3n2CC(O)c2ccncc2)C1 (single isomer, unassigned) [45a]
96%	24%	16%			CN1CCc2c(c3cccc(Cl)c3n2CC(O)c2ccncc2)C1 (single isomer, unassigned) [45b]
